# Literature values in patent publication US9572781B2, “Orally disintegrating tablet compositions comprising combinations of non-opioid and opioid analgesics” (Adare Pharmaceuticals, Inc., priority 2009, dated 2017).
smiles,measurement,setting,value
CC(=O)Nc1ccc(O)cc1 [acetaminophen],Drug detectable,after about 8 hours,only traces
same,Time to peak plasma concentrations,following oral administration,30 to 60 min
